Data: ChEMBL document CHEMBL5120775, “Boosting the Discovery of Small Molecule Inhibitors of Glucose-6-Phosphate Dehydrogenase for the Treatment of Cancer, Infectious Diseases, and Inflammation” (J Med Chem, 2022)

Tests used:
[1] = Inhibition of Plasmodium falciparum recombinant GluPho measured for 20 to 30 mins by multiwell plate reader method
[2] = molecular target: T1, Glucose-6-phosphate 1-dehydrogenase (Homo sapiens, UniProt P11413); experiment: Binding affinity to human G6PD
[3] = Binding affinity to Plasmodium falciparum GluPho
[4] = Selectivity index, ratio of Ki for human G6PD to Ki for Plasmodium falciparum GluPho
Plasmodium falciparum = experiment: Antimalarial activity against Plasmodium falciparum 3D7 incubated for 48 hrs followed by [3H]-hypoxanthine addition measured after 24 hrs by microdilution method; assay type: functional, organism-based
[5] = molecular target: T1, Glucose-6-phosphate 1-dehydrogenase; experiment: Inhibition of human C-terminal His tagged G6PD overexpressed in Escherichia coli BL21
[6] = Antiproliferative activity against human MCF10AT1 cells; assay type: functional, cell-based
[7] = Inhibition of Trypanosoma cruzi G6PD
[8] = Inhibition of Trypanosoma cruzi G6PD expressed in Escherichia coli BL21 (DE3) by G6PDH-diaphorase-resorufin coupled assay
[9] = molecular target: T1, Glucose-6-phosphate 1-dehydrogenase; experiment: Inhibition of human G6PD
Trypanosoma cruzi = experiment: Trypanocidal activity against Trypanosoma cruzi assessed as lethal dose; assay type: functional; conditions: read-out: LD50 (the source's name)
[10] = molecular target: T1, Glucose-6-phosphate 1-dehydrogenase; experiment: Binding affinity to G6PD (unknown origin) assessed as Gibbs free energy
[11] = Inhibition of Plasmodium falciparum GluPho
[12] = Inhibition of Plasmodium vivax G6PD

T1 sequence (P11413 whole entry): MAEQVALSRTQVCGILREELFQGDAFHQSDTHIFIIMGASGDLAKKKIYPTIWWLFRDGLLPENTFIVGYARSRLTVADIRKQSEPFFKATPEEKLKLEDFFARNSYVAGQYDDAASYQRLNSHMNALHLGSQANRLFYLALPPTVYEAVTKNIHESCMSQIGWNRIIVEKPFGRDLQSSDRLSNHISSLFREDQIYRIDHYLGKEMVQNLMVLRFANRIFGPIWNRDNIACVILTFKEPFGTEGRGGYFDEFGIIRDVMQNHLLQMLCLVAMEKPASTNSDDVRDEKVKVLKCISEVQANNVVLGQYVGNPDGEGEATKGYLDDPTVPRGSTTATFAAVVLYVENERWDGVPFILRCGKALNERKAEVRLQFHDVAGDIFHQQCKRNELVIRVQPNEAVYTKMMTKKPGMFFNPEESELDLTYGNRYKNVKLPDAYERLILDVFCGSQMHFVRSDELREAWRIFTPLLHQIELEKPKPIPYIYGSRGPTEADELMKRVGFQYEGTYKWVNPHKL

Question: For `COc1ccc(-c2ccc(C=C3C(=O)NC(=O)NC3=O)o2)c([N+](=O)[O-])c1`, which IC50 [1] is on record?
Answer: 4.6 µM

Question: For `CO[C@H]1O[C@H](CS(=O)(=O)CCN)[C@@H](O)[C@H](O)[C@H]1O`, which Ki [2] is on record?
Answer: > 400 µM

Question: And the Ki [3]?
Answer: 22.8 µM

Question: What about the Ratio Ki [4] of the same compound?
Answer: > 18

Question: Which Ki [2] does the source give for `CO[C@H]1O[C@H](CS(=O)(=O)CCNC(=N)N)[C@@H](O)[C@H](O)[C@H]1O` here?
Answer: 16.8 µM

Question: What about the Ki [3] of the same compound?
Answer: 32.4 µM

Question: What about the Ratio Ki [4] of the same compound?
Answer: 0.5

Question: Which Ki [3] does the source give for `CO[C@H]1O[C@H](CSCCCN)[C@@H](O)[C@H](O)[C@H]1O` here?
Answer: 289 µM

Question: And the Ratio Ki [4]?
Answer: 0.4

Question: What does the source list for `CO[C@H]1O[C@H](CS(=O)(=O)CCCNC(=N)N)[C@@H](O)[C@H](O)[C@H]1O`?
Answer: Ki [3]: 42.9 µM; Ratio Ki [4]: 0.5

Question: What does the source list for `CO[C@H]1O[C@H](CS(=O)(=O)CCCN)[C@@H](O)[C@H](O)[C@H]1O`?
Answer: Ki [3]: 34.4 µM; Ratio Ki [4]: 1

Question: For `Cc1ccc(C)c(S(=O)(=O)Nc2ccc(O)c3ccccc23)c1`, which IC50 [1] is on record?
Answer: 22 µM

Question: What about the IC50 (Plasmodium falciparum) of the same compound?
Answer: 5.3 µM

Question: And the IC50 [5]?
Answer: 200 nM

Question: What about the IC50 [6] of the same compound?
Answer: 25 µM

Question: With `CCN1CCC[C@@H]1CNC(=O)c1ccc2c(c1)NC(=O)/C(=C/c1ccccc1F)S2` as the compound, how does the IC50 (Plasmodium falciparum) read?
Answer: 2.3 µM

Question: With `CO[C@H]1O[C@H](CSCCNC(=N)N)[C@@H](O)[C@H](O)[C@H]1O` as the compound, how does the Ki [3] read?
Answer: 45.6 µM

Question: What about the Ratio Ki [4] of the same compound?
Answer: > 4.4

Question: Which IC50 [7] does the source give for `Cc1ccc(Nc2ncc3c(n2)CCCC3=O)cc1` here?
Answer: 10 µM

Question: And the IC50 [8]?
Answer: 480 nM

Question: Which IC50 [7] does the source give for `Cc1cccc(Nc2ncc3c(n2)CCCC3=O)c1` here?
Answer: 0.63 µM

Question: With `O=S(=O)(Nc1ccc(O)c2ccccc12)c1ccc(F)cc1` as the compound, how does the IC50 [1] read?
Answer: 30 µM

Question: What about the IC50 (Plasmodium falciparum) of the same compound?
Answer: 3.9 µM

Question: What does the source list for `O=c1c2ccccc2nc(-c2cccnc2)n1-c1ccc(Br)cn1`?
Answer: IC50 [1]: 4.5 µM; IC50 [5]: 2600 nM; IC50 [9]: 2600 nM

Question: With `C[C@]12CC[C@H](O)C[C@@H]1CC[C@@H]1[C@@H]2CC[C@]2(C)C(=O)[C@H](Br)C[C@@H]12` [16.ALPHA.-BROMOEPIANDROSTERONE] as the compound, how does the IC50 [7] read?
Answer: 0.086 µM

Question: And the LC50 (Trypanosoma cruzi)?
Answer: 12 µM

Question: With `COc1ccc(N2CCN(c3nc(C)c4c(n3)CCCC4=O)CC2)cc1` as the compound, how does the IC50 [8] read?
Answer: 610 nM

Question: For `CC(C)(C)c1ccc(Oc2ccc(N)cn2)cc1` [LIMANTRAFIN], which IC50 [1] is on record?
Answer: 1.5 µM

Question: What about the IC50 (Plasmodium falciparum) of the same compound?
Answer: 0.97 µM

Question: For `O=C1Nc2ccc(Br)cc2/C1=C1/SC(=S)N(C(Cc2ccccc2)C(=O)O)C1=O` (stereo unspecified), which IC50 [5] is on record?
Answer: 3100 nM

Question: Which IC50 [1] does the source give for `COc1ccc(-n2c(-c3cccnc3)nc3ccccc3c2=O)cc1` here?
Answer: 7.6 µM

Question: And the IC50 [5]?
Answer: 3000 nM

Question: And the IC50 [9]?
Answer: 3000 nM

Question: With `O=C(Nc1ccc(Cl)cc1)Nc1ncc([N+](=O)[O-])s1` as the compound, how does the deltaG [10] read?
Answer: -6.91 kcal/mol

Question: With `CO[C@H]1O[C@H](CSCCC#N)[C@@H](O)[C@H](O)[C@H]1O` as the compound, how does the Ki [3] read?
Answer: 259 µM

Question: What about the Ratio Ki [4] of the same compound?
Answer: > 0.8

Question: With `CO[C@H]1O[C@H](CS(=O)(=O)CCC#N)[C@@H](O)[C@H](O)[C@H]1O` as the compound, how does the Ki [3] read?
Answer: 68.8 µM

Question: And the Ratio Ki [4]?
Answer: > 2.9

Question: For `O=C(Cn1ccnc1[N+](=O)[O-])NCc1ccccc1` [BENZNIDAZOLE], which IC50 [7] is on record?
Answer: 8.5 µM

Question: With `CO[C@H]1O[C@H](CSCCN)[C@@H](O)[C@H](O)[C@H]1O` as the compound, how does the Ratio Ki [4] read?
Answer: 26

Question: For `CCN1CCC[C@@H]1CNC(=O)c1ccc2c(c1)NC(=O)c1cccc(C)c1S2`, which IC50 [11] is on record?
Answer: 190 nM

Question: And the IC50 [12]?
Answer: 15.3 µM

Question: Which results are given for `COc1cc(/C=C2\C(=O)N(c3nc(-c4ccc(Cl)cc4)cs3)N=C2C)cc(OC)c1OC`?
Answer: IC50 [11]: 1700 nM; IC50 [5]: 600 nM

Question: With `CCCCCCCn1cnc2sc(C(N)=O)c(C)c2c1=O` as the compound, how does the IC50 [8] read?
Answer: 4900 nM

Question: Which IC50 [1] does the source give for `Cc1cccc(N2C(=O)NC(=O)/C(=C/c3ccc(-c4ccc([N+](=O)[O-])cc4C)o3)C2=O)c1` here?
Answer: 5.1 µM

Question: With `O=C1NC(=O)N(c2ccc(O)cc2)C(=O)/C1=C\c1ccc(-c2ccccc2[N+](=O)[O-])o1` as the compound, how does the IC50 [1] read?
Answer: 19.9 µM
